# From publication PMC10518257 (Nature Cancer, 2023)
# Several values for one entry are separate records, joined by “and”; a condition that tells them apart may be missing. Identical values can stand only once.
# Key:
# [1] = tested on: Ba/F3 cells expressing KIF5B–RET^G810R; test: Growth inhibition assay in Ba/F3 cells (CellTiter-Glo, 72 h); type: cell-based; conditions: replicate Sets 1-3
# LUAD-0087AS2 PDX = test: PDX efficacy study; conditions: for Tumor volume: LUAD-0087AS2, selpercatinib group 30 mg/kg BID, individual animals
# [2] = tested on: Ba/F3 cells expressing KIF5B–RET^G810C; test: Growth inhibition assay in Ba/F3 cells (CellTiter-Glo, 72 h); type: cell-based; conditions: replicate Sets 1-3
# MMNK1 cholangiocytes = test: Growth inhibition (alamarBlue, 96 h); type: cell-based, human; conditions: for raw viability signal (Source Data Fig. 3b-c): MMNK, replicates
# [3] = tested on: HBECp53-RET cells (CCDC6-RET fusion); test: Growth inhibition (alamarBlue, 96 h); type: cell-based, human; conditions: for raw viability signal (Source Data Fig. 3b-c): HBEC-RET, replicate sets
# LUAD-0086AS3 cells = test: Growth inhibition (alamarBlue, 96 h); type: cell-based, human; conditions: for raw viability signal (Source Data Fig. 3b-c): LUAD-0086AS3 (n=1, 3 replicates)
# [4] = Transcellular transport study, apparent permeability; conditions: pig, LLC-PK1
# [5] = Homo sapiens, 96 h, read-out: IC50 for Inhibition of Growth (95% CI)
compound,measurement,setting,value
COc1ccc(CN2C3CC2CN(c2ccc(-c4cc(OCC(C)(C)O)cn5ncc(C#N)c45)cn2)C3)cn1 [Selpercatinib],GI50,[1]; Ba/3-KIF5B-RET-G810R,1070 nM and 1190 nM
same,GI50,"[1]; Mus musculus, BaF3, Ba/3-KIF5B-RET-G810R",800 nM
same,Area Under Curve Mean,"LUAD-0087AS2 PDX; Fig. 6a LUAD-0087AS2 tumor growth, selpercatinib 30 mg/kg BID",-1216
same,Tumor volume,LUAD-0087AS2 PDX; treatment day 0,118.47 (2×) and 116.65 and 114.49 (2×)
same,Tumor volume,LUAD-0087AS2 PDX; treatment day 3,107.17 (3×) and 103.77 and 112.73
same,Tumor volume,LUAD-0087AS2 PDX; treatment day 7,99.78 and 112.28 and 107.17 (2×) and 110.58
same,Tumor volume,LUAD-0087AS2 PDX; treatment day 10,95.03 (4×) and 96.62
same,Tumor volume,LUAD-0087AS2 PDX; treatment day 14,91.61 and 88.25 and 95.03 and 86.78 and 91.87
same,Tumor volume,LUAD-0087AS2 PDX; treatment day 17,103.77 and 88.25 and 107.17 and 96.62 and 91.87
same,Tumor volume,LUAD-0087AS2 PDX; treatment day 21,103.77 and 83.83 and 96.62 (2×) and 91.87
same,Tumor volume,LUAD-0087AS2 PDX; treatment day 24,72.18 (2×) and 83.97 and 80.89 and 74.9
same,Tumor volume,LUAD-0087AS2 PDX; treatment day 29,80.89 (2×) and 72.18 and 85.5 and 74.9
same,Tumor volume,LUAD-0087AS2 PDX; treatment day 32,80.89 (3×) and 75.04 and 70.69
same,Tumor volume,LUAD-0087AS2 PDX; treatment day 35,82.36 and 75.04 and 88.7 and 80.89 and 70.69
same,Tumor volume,LUAD-0087AS2 PDX; treatment day 38,79.29 and 75.04 and 88.7 and 80.89 and 70.69
same,Tumor volume,LUAD-0087AS2 PDX; treatment day 42,79.29 and 75.04 and 98.67 and 80.89 and 77.87
same,Tumor volume,LUAD-0087AS2 PDX; treatment day 45,79.29 and 72.18 and 98.67 and 68.07 and 73.54
same,GI50,[2]; Ba/3-KIF5B-RET-G810C,201 nM and 181 nM
same,GI50,"[2]; Mus musculus, BaF3, Ba/3-KIF5B-RET-G810C",233 nM
same,IC50,MMNK1 cholangiocytes; [5],7930 nM
same,raw viability signal (Source Data Fig. 3b-c),MMNK1 cholangiocytes; 0.01 nM,14041 and 14658.8
same,raw viability signal (Source Data Fig. 3b-c),MMNK1 cholangiocytes; 0.1 nM,13930.7 and 15331
same,raw viability signal (Source Data Fig. 3b-c),MMNK1 cholangiocytes; 1 nM,13461 and 14668.6
same,raw viability signal (Source Data Fig. 3b-c),MMNK1 cholangiocytes; 10 nM,13703.4 and 14128
same,raw viability signal (Source Data Fig. 3b-c),MMNK1 cholangiocytes; 100 nM,13905.3 and 14051.8
same,raw viability signal (Source Data Fig. 3b-c),MMNK1 cholangiocytes; 1000 nM,12731.7 and 12599.2
same,raw viability signal (Source Data Fig. 3b-c),MMNK1 cholangiocytes; 10000 nM,6976.41 and 6993.09
same,raw viability signal (Source Data Fig. 3b-c),[3]; 0.01 nM,18093.2 and 9060.84 and 18084.5
same,raw viability signal (Source Data Fig. 3b-c),[3]; 0.1 nM,17267.5 and 9270.44 and 17759.2
same,raw viability signal (Source Data Fig. 3b-c),[3]; 1 nM,17188.9 and 9066.79 and 17837.1
same,raw viability signal (Source Data Fig. 3b-c),[3]; 10 nM,6462.76 and 8147.32 and 16191.8
same,raw viability signal (Source Data Fig. 3b-c),[3]; 100 nM,3445.11 and 2694.56 and 6209.19
same,raw viability signal (Source Data Fig. 3b-c),[3]; 1000 nM,2899.6 and 1772.22 and 5277.83
same,raw viability signal (Source Data Fig. 3b-c),[3]; 10000 nM,2192.17 and 1006.02 and 4021.33
same,IC50,"[3]; Homo sapiens, 96 h, read-out: IC50 for Inhibition of Growth (95% CI), HBECp53-RET, alamarBlue, 96 h",26 nM
same,IC50,LUAD-0086AS3 cells; [5],84 nM
same,raw viability signal (Source Data Fig. 3b-c),LUAD-0086AS3 cells; 0.01 nM,32605.6 and 32345.5 and 24840.6
same,raw viability signal (Source Data Fig. 3b-c),LUAD-0086AS3 cells; 0.1 nM,24088.4 and 24382.4 and 28533.2
same,raw viability signal (Source Data Fig. 3b-c),LUAD-0086AS3 cells; 1 nM,21980.7 and 23036.6 and 27631.4
same,raw viability signal (Source Data Fig. 3b-c),LUAD-0086AS3 cells; 10 nM,22728.2 and 21261.8 and 26828.6
same,raw viability signal (Source Data Fig. 3b-c),LUAD-0086AS3 cells; 100 nM,13108.2 and 14842.7 and 15753
same,raw viability signal (Source Data Fig. 3b-c),LUAD-0086AS3 cells; 1000 nM,5050.52 and 4540.04 and 5107.48
same,raw viability signal (Source Data Fig. 3b-c),LUAD-0086AS3 cells; 10000 nM,1139.12 and 1223.75 and 1244.48
same,"Papp at 3 h, 1 μM",[4],17 ×10⁻⁶ cm/s
